The source made the active and inactive calls.
Assays:
Type in all cases: functional, cell-based
[1] = test system: NCI/ADR-RES; assay: Growth inhibition of human NCI/ADR-RES cells at 10 uM by sulforhodamine B assay
[2] = test system: SNB-75; assay: Growth inhibition of human SNB75 cells at 10 uM by sulforhodamine B assay
[3] = test system: COLO 205; assay: Growth inhibition of human COLO205 cells at 10 uM by sulforhodamine B assay
[4] = test system: MOLT-4; assay: Growth inhibition of human MOLT4 cells at 10 uM by sulforhodamine B assay
[5] = test system: SR; assay: Growth inhibition of human SR cells at 10 uM by sulforhodamine B assay
[6] = test system: CAKI-1; assay: Growth inhibition of human Caki1 cells at 10 uM by sulforhodamine B assay
[7] = test system: MDA-MB-468; assay: Growth inhibition of human MDA-MB-468 cells at 10 uM by sulforhodamine B assay
[8] = test system: SF-295; assay: Growth inhibition of human SF295 cells at 10 uM by sulforhodamine B assay
[9] = test system: MDA-MB-231; assay: Growth inhibition of human MDA-MB-231 cells at 10 uM by sulforhodamine B assay
[10] = test system: BT-549; assay: Growth inhibition of human BT549 cells at 10 uM by sulforhodamine B assay
[11] = test system: SN12C; assay: Growth inhibition of human SN12C cells at 10 uM by sulforhodamine B assay
[12] = test system: SF-539; assay: Growth inhibition of human SF539 cells at 10 uM by sulforhodamine B assay
[13] = test system: NCI-H522; assay: Growth inhibition of human NCI-H522 cells at 10 uM by sulforhodamine B assay
[14] = test system: A498; assay: Growth inhibition of human A498 cells at 10 uM by sulforhodamine B assay
[15] = test system: ACHN; assay: Growth inhibition of human ACHN cells at 10 uM by sulforhodamine B assay
[16] = test system: KM12; assay: Growth inhibition of human KM12 cells at 10 uM by sulforhodamine B assay
[17] = test system: RXF 393; assay: Growth inhibition of human RXF393 cells at 10 uM by sulforhodamine B assay
[18] = test system: HL-60(TB); assay: Growth inhibition of human HL-60(TB) cells at 10 uM by sulforhodamine B assay
[19] = test system: OVCAR-3; assay: Growth inhibition of human OVCAR3 cells at 10 uM by sulforhodamine B assay
[20] = test system: SF-268; assay: Growth inhibition of human SF268 cells at 10 uM by sulforhodamine B assay
[21] = test system: HOP-62; assay: Growth inhibition of human HOP62 cells at 10 uM by sulforhodamine B assay
[22] = test system: Hs-578T; assay: Growth inhibition of human Hs 578T cells at 10 uM by sulforhodamine B assay
[23] = test system: SNB-19; assay: Growth inhibition of human SNB19 cells at 10 uM by sulforhodamine B assay
[24] = test system: UO-31; assay: Growth inhibition of human UO31 cells at 10 uM by sulforhodamine B assay
[25] = test system: CCRF-CEM; assay: Growth inhibition of human CCRF-CEM cells at 10 uM by sulforhodamine B assay
[26] = test system: 786-0; assay: Growth inhibition of human 786-0 cells at 10 uM by sulforhodamine B assay
[27] = test system: SK-MEL-28; assay: Growth inhibition of human SK-MEL-28 cells at 10 uM by sulforhodamine B assay
[28] = test system: HOP-92; assay: Growth inhibition of human HOP92 cells at 10 uM by sulforhodamine B assay
[29] = test system: HCC 2998; assay: Growth inhibition of human HCC2998 cells at 10 uM by sulforhodamine B assay
[30] = test system: U-251; assay: Growth inhibition of human U251 cells at 10 uM by sulforhodamine B assay
[31] = test system: NCI-H23; assay: Growth inhibition of human NCI-H23 cells at 10 uM by sulforhodamine B assay
[32] = test system: M14; assay: Growth inhibition of human M14 cells at 10 uM by sulforhodamine B assay
[33] = test system: NCI-H460; assay: Growth inhibition of human NCI-H460 cells at 10 uM by sulforhodamine B assay
[34] = test system: Malme-3M; assay: Growth inhibition of human MALME-3M cells at 10 uM by sulforhodamine B assay
[35] = test system: K562; assay: Growth inhibition of human K562 cells at 10 uM by sulforhodamine B assay
[36] = test system: MDA-MB-435; assay: Growth inhibition of human MDA-MB-435 cells at 10 uM by sulforhodamine B assay
[37] = test system: IGROV-1; assay: Growth inhibition of human IGROV1 cells at 10 uM by sulforhodamine B assay
[38] = test system: UACC-62; assay: Growth inhibition of human UACC62 cells at 10 uM by sulforhodamine B assay
[39] = test system: SK-MEL-5; assay: Growth inhibition of human SK-MEL-5 cells at 10 uM by sulforhodamine B assay
[40] = test system: SW-620; assay: Growth inhibition of human SW620 cells at 10 uM by sulforhodamine B assay
[41] = test system: LOX IMVI; assay: Growth inhibition of human LOXIMVI cells at 10 uM by sulforhodamine B assay
[42] = test system: T47D; assay: Growth inhibition of human T47D cells at 10 uM by sulforhodamine B assay
[43] = test system: MCF7; assay: Growth inhibition of human MCF7 cells at 10 uM by sulforhodamine B assay
[44] = test system: OVCAR-5; assay: Growth inhibition of human OVCAR5 cells at 10 uM by sulforhodamine B assay
[45] = test system: A549; assay: Growth inhibition of human A549/ATCC cells at 10 uM by sulforhodamine B assay
[46] = test system: OVCAR-8; assay: Growth inhibition of human OVCAR8 cells at 10 uM by sulforhodamine B assay
[47] = test system: HT-29; assay: Growth inhibition of human HT-29 cells at 10 uM by sulforhodamine B assay
[48] = test system: DU-145; assay: Growth inhibition of human DU145 cells at 10 uM by sulforhodamine B assay
[49] = test system: TK-10; assay: Growth inhibition of human TK10 cells at 10 uM by sulforhodamine B assay
[50] = test system: HCT-15; assay: Growth inhibition of human HCT15 cells at 10 uM by sulforhodamine B assay
[51] = test system: PC-3; assay: Growth inhibition of human PC3 cells at 10 uM by sulforhodamine B assay
[52] = test system: RPMI-8226; assay: Growth inhibition of human RPMI8226 cells at 10 uM by sulforhodamine B assay
[53] = test system: SK-MEL-2; assay: Growth inhibition of human SK-MEL-2 cells at 10 uM by sulforhodamine B assay
[54] = test system: SK-OV-3; assay: Growth inhibition of human SKOV3 cells at 10 uM by sulforhodamine B assay
[55] = test system: UACC-257; assay: Growth inhibition of human UACC257 cells at 10 uM by sulforhodamine B assay
[56] = test system: OVCAR-4; assay: Growth inhibition of human OVCAR4 cells at 10 uM by sulforhodamine B assay
[57] = test system: NCI-H322M; assay: Growth inhibition of human NCI-H322M cells at 10 uM by sulforhodamine B assay
[58] = test system: NCI-H226; assay: Growth inhibition of human NCI-H226 cells at 10 uM by sulforhodamine B assay
[59] = test system: HCT-116; assay: Growth inhibition of human HCT116 cells at 10 uM by sulforhodamine B assay

Measured: growth inhibition (GI)

COc1cc(-c2nc(-c3ccccc3)c(-c3ccccc3)n2Cc2ccccc2)ccc1OC1CCCCC1
active: [1] | [2] | [3] | [4] | [5] | [6] | [7] | [8] | [9] | [10] | [11] | [12] | [13] | [14] | [15] | [16] | [17] | [18] | [19] | [20] | [21] | [22] | [23] | [24] | [25] | [26] | [27] | [28] | [29] | [30] | [31] | [32] | [33] | [34] | [35] | [36] | [37] | [38] | [39] | [40] | [41] | [42] | [43] | [44] | [45] | [46] | [47] | [48] | [49] | [50] | [51] | [52] | [53] | [54] | [55] | [56] | [57] | [58] | [59]

COc1ccc(-c2nc(-c3ccccc3)c(-c3ccccc3)n2C2CC2)cc1OC1CCCC1
active: [1] | [2] | [3] | [4] | [5] | [6] | [7] | [8] | [9] | [10] | [11] | [12] | [13] | [14] | [15] | [16] | [17] | [18] | [19] | [20] | [21] | [22] | [23] | [24] | [25] | [26] | [27] | [28] | [29] | [30] | [31] | [32] | [33] | [34] | [35] | [36] | [37] | [38] | [39] | [40] | [41] | [42] | [43] | [44] | [45] | [46] | [47] | [48] | [49] | [50] | [51] | [52] | [53] | [54] | [55] | [56] | [57] | [58] | [59]

Reference: ChEMBL document CHEMBL3621049, “Imidazole derivatives show anticancer potential by inducing apoptosis and cellular senescence” (2014)
